“Also recorded” adds a separate entry of the source.
Columns and labels:
WT PS1-complex = biological target: T1, WT PS1-complex (Homo sapiens, UniProt P49768); assay: in vitro cleavage assay, AICD production by western blot; assay type: biochemical; conditions: 200 nM MRK-560, WT PS1-complex
T1 construct: made in house; host or cells: mammalian cells (HEK293F is stated for the cryo-EM samples)
Experimental: (§1) The PS1- or PS2 complexes were expressed and purified as described. To validate the inhibitory effect of MRK-560 (Fig. 1a), we reconstituted an in vitro cleavage assay using the purified PS1- or PS2 complexes. Production of Aβ40, which is the major cleavage product among the varying lengths of Aβs, and AICD, whose cleavage reflects the endopeptidase activity of γ-secretase, are measured with AlphaLISA and western blots, respectively.
(§2) Release of AICD in the presence of decreasing concentrations of MRK-560 from 10 μM to 2 nM was monitored by western blot with the primary monoclonal antibody against the C-terminal Myc tag. The production of AICD was quantified by ImageJ. Red asterisks indicate the first concentration where the normalized production of AICD was reduced to less than 20%. Each cleavage assay in (b–d) was repeated for three times. Error bars: SD. Source Data is available as a Source Data file.
(§3) All proteins used for the activity assay were sub-cloned, expressed and purified as described. Protein concentration was determined using the Bradford method. […] The cleaved products of these substrates were detected using a monoclonal antibody (1:1000 dilution, CW0299, CWBio) against the C-terminal Myc tag. Aβ40 production was detected using the AlphaLISA assay (PerkinElmer) as described. The IC50 values and the inhibition curves were calculated using Prism 8.0.

WT PS2-complex = biological target: T2, WT PS2-complex (Homo sapiens, UniProt P49810); assay: as above; assay type: biochemical; conditions: 10 μM MRK-560, WT PS2-complex
T2 construct: made in house; host or cells: mammalian cells (HEK293F is stated for the cryo-EM samples)
Experimental: as §1, §2, §3

[1] = tested on: PS1 and PS2 with swapped loop-3; assay: as above; assay type: biochemical, human
Experimental: (§4) Fig. 4 Thr281 and Leu282 of PS1 determine the isoform selectivity of MRK-560. a–c Individual and double residue swapping of Thr281 and Leu282 in PS1 with the corresponding Pro287 and Ile288 in PS2 alter their respective sensitives to MRK-560 accordingly. IC50 values for MRK-560 inhibition of the indicated PS1 (a) and PS2 (b) mutants were measured using the AlphaLISA assay that detects Aβ40 production. Please refer to Methods for experimental details. Data are presented as mean values ± SD. c Production of AICD by residue-swapped PS1 and PS2 mutants. The amount of AICD generated by the indicated variants in the presence of serial diluted MRK-560 is consistent with the corresponding IC50 shown in (a, b). […] The production of AICD was quantified by ImageJ. Red asterisks indicate the first concentration where the normalized production of AICD was reduced to less than 20%. Source data are provided as a Source Data file. […]
as §3

PS1 TL281-282PI = biological target: T3, PS1 TL281-282PI (Homo sapiens, UniProt P49768, L282I/T281P); assay: as above; assay type: biochemical; conditions: 10 μM MRK-560, PS1 TL281-282PI
T3 construct: made in house
Experimental: (§5) Fig. 4 Thr281 and Leu282 of PS1 determine the isoform selectivity of MRK-560. a–c Individual and double residue swapping of Thr281 and Leu282 in PS1 with the corresponding Pro287 and Ile288 in PS2 alter their respective sensitives to MRK-560 accordingly. IC50 values for MRK-560 inhibition of the indicated PS1 (a) and PS2 (b) mutants were measured using the AlphaLISA assay that detects Aβ40 production. Please refer to Methods for experimental details. Data are presented as mean values ± SD. c Production of AICD by residue-swapped PS1 and PS2 mutants. The amount of AICD generated by the indicated variants in the presence of serial diluted MRK-560 is consistent with the corresponding IC50 shown in (a, b). […] The production of AICD was quantified by ImageJ. Red asterisks indicate the first concentration where the normalized production of AICD was reduced to less than 20%. Source data are provided as a Source Data file. Each cleavage assay was repeated three times. Error bars: SD.
(§6) We also examined the inhibitory effect of MRK-560 on the production of AICD by the PS1/PS2 variants (Fig. 4c).
(§7) All proteins used for the activity assay were sub-cloned, expressed and purified as described. Protein concentration was determined using the Bradford method. […] The cleavage reaction was conducted at 37 °C for 4 h. The cleaved products of these substrates were detected using a monoclonal antibody (1:1000 dilution, CW0299, CWBio) against the C-terminal Myc tag. Aβ40 production was detected using the AlphaLISA assay (PerkinElmer) as described. The IC50 values and the inhibition curves were calculated using Prism 8.0.

PS2(PI287-288TL) = biological target: T4, PS2(PI287-288TL) (Homo sapiens, UniProt P49810, I288L/P287T); assay: as above; assay type: biochemical; conditions: 200 nM MRK-560, PS2(PI287-288TL)
T4 construct: made in house
Experimental: as §5, §6, §7

PS1 variant T281P = biological target: T5, PS1 variant T281P (Homo sapiens, UniProt P49768, T281P); assay: as above; assay type: biochemical; conditions: 1 μM MRK-560, PS1 T281P
T5 construct: made in house
Experimental: as §5, §6, §7

PS1 variant L282I = biological target: T6, PS1 variant L282I (Homo sapiens, UniProt P49768, L282I); assay: as above; assay type: biochemical; conditions: 1 μM MRK-560, PS1 L282I
T6 construct: made in house
Experimental: as §5, §6, §7

Notch = tested on: Notch; design: method as in PMID 17099072, PMID 16443723; conditions: wild-type (WT) mouse model; cited from earlier work
[2] = tested on: Aβ production in the brain; design: method as in PMID 17099072, PMID 16443723; conditions: cited from earlier work
PS2 variants = assay: in vitro cleavage assay, AICD production by western blot; assay type: biochemical, human; conditions: PS2 variants versus WT PS2
Experimental: as §4, §3

Generation of AICD (WT PS1-complex): completely inhibited
Generation of AICD (PS1 TL281-282PI): could not be completely inhibited
Generation of AICD (PS2(PI287-288TL)): completely inhibited
Generation of AICD (PS1 variant T281P): still detected
Generation of AICD (PS1 variant L282I): still detected
Structure (SMILES): O=S(=O)(NC1CCC(c2cc(F)ccc2F)(S(=O)(=O)c2ccc(Cl)cc2)CC1)C(F)(F)F (stereo not drawn) [MRK-560, N-[cis-4-[(4-chlorophenyl)sulfonyl]-4-(2,5-difluorophenyl)cyclohexyl]-1,1,1-trifluoromethanesulfonamide]
Generation of AICD (WT PS2-complex): can still be detected; also recorded: could not be completely inhibited
effect of swapping loop-3 between PS1 and PS2 on sensitivity to MRK-560 [1]: little influence on inhibition selectivity; also recorded: no detectable effect on the sensitivity
Notch-related side effect (Notch): does not induce Notch-related side effect
Aβ production in the brain [2]: reduced
sensitivity of AICD production to MRK-560 (PS2 variants): increased sensitivity
